{"source": "patent US20190008797A1", "about": "“ESTROGEN RECEPTOR ALPHA COLIGANDS, AND METHODS OF USE THEREOF” (priority 2016, published 2019)", "key": {"ERα": {"target": "ERα (Homo sapiens, UniProt P03372)", "sequence (P03372 whole entry)": "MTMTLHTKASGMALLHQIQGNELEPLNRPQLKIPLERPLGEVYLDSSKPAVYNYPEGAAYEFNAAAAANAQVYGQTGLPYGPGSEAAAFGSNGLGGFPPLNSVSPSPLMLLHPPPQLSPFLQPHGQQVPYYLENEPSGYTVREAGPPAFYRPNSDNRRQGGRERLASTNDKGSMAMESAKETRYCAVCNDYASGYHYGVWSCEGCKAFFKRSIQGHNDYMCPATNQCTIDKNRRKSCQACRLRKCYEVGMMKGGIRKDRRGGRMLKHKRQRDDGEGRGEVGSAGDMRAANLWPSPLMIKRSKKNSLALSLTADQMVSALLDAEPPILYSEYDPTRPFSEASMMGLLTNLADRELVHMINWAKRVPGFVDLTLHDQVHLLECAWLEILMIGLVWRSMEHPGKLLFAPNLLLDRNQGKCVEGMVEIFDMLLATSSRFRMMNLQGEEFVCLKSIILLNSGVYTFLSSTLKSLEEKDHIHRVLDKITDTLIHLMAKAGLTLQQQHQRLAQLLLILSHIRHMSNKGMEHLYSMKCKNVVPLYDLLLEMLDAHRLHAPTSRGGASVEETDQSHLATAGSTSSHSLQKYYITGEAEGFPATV", "test": "NKG2E-TK-Luc transfection assay, U2OS cells cotransfected with ERα", "assay_type": "cell-based", "set-up": "expressed in transfected cells; host or cells: U2OS", "conditions": "5 μM 2′,3′,4′-THC + 10 or 100 nM estrogen, 24 hours", "protocol": "FIG. 7a-7e. […] (C) U2OS cells cotransfected with GRE-TK-Luc and human (h) GR and treated with 10 nM of dexamethasone (Dex) and 5 μM of 2′, 3′, 4′-THC alone or in combination for 24 hours. (D) U2OS cells cotransfected with human tyrosine aminotransferase (TATS)-luciferase reporter gene and hAR and treated with 10 nM of dihydrotestosterone (DHT) and 5 μM of 2′, 3′, 4′-THC alone or in combination for 24 hours. (E) U2OS cells cotransfected with TAT3-luciferase reporter gene and hPR-B and treated with 10 nM of progesterone (Prog) and 5 μM of 2′, 3′, 4′-THC alone or in combination for 24 hours. After transfection, luciferase activities were measured as described in the Methods. RLU is relative light units and the data shown are mean±SEM.\n(§1) (FIGS. 6a, 6b) Gene expression of (FIG. 6a) KRT73 and (FIG. 6b) NKG2E in U2OS-ERα cells treated with 10 nM estradiol, 5 μM 2′, 3′, 4′-THC, 1μM ICI alone or in combination for 24 hours. […] Error bars are ±SEM. […] After transfection, luciferase activities were measured as described in the Methods. RLU is relative light units and the data shown are mean ±SEM. (FIG. 6c). […] After transfection, luciferase activities were measured as described in the Methods. RLU is relative light units and the data shown are mean ±SEM (FIG. 6d)."}, "U2OS-ERα cells [1]": {"tested_on": "U2OS-ERα cells", "test": "Microarray gene regulation in U2OS-ERα cells", "assay_type": "cell-based, human", "protocol": "Total cellular RNA was isolated utilizing the Aurum™ RNA isolation kit (Bio-Rad, Hercules, Calif.) per the manufacturer's directions. RNA isolates were first quantified by nanodrop®, and then qualitatively evaluated by the Bio-Rad Experion™ system per the manufacturer's instructions. Biotin-labeled cRNA samples were prepared using 750 ng of total RNA. Biotin-labeled samples were evaluated by both 260/280 absorbance spectrophotometry and capillary electrophoresis. Labeled cRNA samples were hybridized overnight against Human genome HG U133A-2.0 GeneChip® arrays, (Affymetrix, Santa Clara, Calif.). All treatments were done in triplicate with the same batch of microarrays. The data was analyzed as previously described (Saunier, E. F., et al. Estrogenic plant extracts reverse weight gain and fat accumulation without causing mammary gland or uterine proliferation. PloS one 6, e28333 (2011)).\nFIGS. 2a-2f2′, 3′, 4′-THC behaves as a unique coagonist on gene expression in U2OS-ERα cells. […] Expression was assessed by up regulation or down regulation of 3-fold or more and a P-value≤0.05. […] Error bars are ±SEM."}, "MCF-7 cells": {"tested_on": "MCF-7 cells", "test": "MCF-7 cell proliferation (cell counting)", "conditions": "5 days"}, "U2OS-ERα cells [2]": {"tested_on": "U2OS-ERα cells", "test": "Real-time PCR of unique genes FGR, KCNK6, KRT73 in U2OS-ERα cells", "assay_type": "cell-based, human", "protocol": "Expression was assessed by up regulation or down regulation of 3-fold or more and a P-value≤0.05. […] Error bars are ±SEM.\nas §1"}, "mouse uterus": {"tested_on": "mouse uterus", "test": "Ovariectomized (OVX) mouse model, osmotic pump", "assay_type": "in vivo", "conditions": "OVX mice, 4 weeks", "protocol": "8 week old C57b1/6J female ovariectomized or intact mice were purchased from Jackson Laboratories, Sacramento, Calif. Mice were housed and maintained according to OLAC standard procedures in the NAF facility at UC Berkeley, Calif. All mice were fed a soy-free chow diet 2916.15 (Harlan Laboratories, Livermore, Calif.) starting one week before osmotic pump implantation or 2′, 3′, 4′-THC injection. Pumps Model 2006 were purchased from Alzet and filled with vehicle, 1 μg […], 2 mg of 2′, 3′, 4′-THC or the combination of 2′, 3′, 4′-THC and estradiol. All drugs were dissolved in sterile vehicle consisting of 50% dimethylsulfoxide (DMSO), 25% ETOH and 25% deionized water. Pumps were handled with sterile gloves and filled using a 27 gauge filling tube and 1 mL syringe. All pumps were placed in 1X PBS in 15 mL sterile conical tubes and incubated overnight at 37° . Pumps were surgically implanted into 8 week old C57b1/6J female ovariectomized mice (Jackson Laboratory, Sacramento, Calif.) posterior to the scapula and left for a duration of 4 weeks. Intact mice were injected intraperitoneal with 2′, 3′, 4′-THC every day for 3 weeks. Mice were weighed once a week for the duration of the experiment. The intraperitoneal gonadal fat was removed and weighed. Uterine tissue was collected, fluid drained and then weighed.\nTissues were dissected and immediately frozen in liquid nitrogen. Before RNA isolation, tissues were homogenized in PureZOL™ using the MP FastPrep™-24 for 40 seconds.\nUterine Tissue Slide Preparation Uterine tissue was removed and trimmed of excess adipose tissue. Tissues were fixed in formalin for 24 hours then transferred to 50% ETOH for 1 hour followed by 70% ethanol (ETOH) for another hour. After fixation tissues were sent to Histopathology Reference Laboratory, Hercules Calif. where they were paraffin embedded, sectioned and stained with hematoxylin and eosin for morphological exam\nFIGS. 5a-5h. 2′, 3′, 4′-THC acts as antagonist in the mouse uterus. Uterine weights of intact (FIG. 5a) and OVX (FIG. 5b) mice. […] (FIG. 5h) Total body weight of OVX mice after 4 week treatment. Error bars are ±SEM."}, "U2OS-ERα cells [3]": {"tested_on": "U2OS-ERα cells", "test": "KRT19 mRNA real-time PCR in U2OS-ERα cells", "assay_type": "cell-based, human", "conditions": "for KRT19 gene expression, compound alone: 10 nM E2, 5 μM 2′,3′,4′-THC, 1 μM tamoxifen or raloxifene, 24 hours; for effect on E2-induced KRT19 expression: in combination with 10 nM E2, 24 hours", "protocol": "(§2) (FIG. 1a) Chemical structure of 2′, 3′, 4′-THC. (FIG. 1b) U2OS cells cotransfected with ERE tk-luciferase and ERα (left panel) or ERβ (right panel). After transfection the cells were treated for 24 hours with 10 nM estradiol and 5 μM 2′, 3′, 4′-THC alone or in combination. Cells were lysed and luciferase activity was measured. RLU is relative light units. Error bars are the Mean±SEM. **P≤0.01. […] The total cellular RNA was extracted and real-time PCR for KRT19 mRNA was performed as described in Materials and Methods. […] Error bars are ±SEM. *P≤0.05, **** P≤0.0001.\nFIGS. 3a-3d. […] Error bars are ±SEM."}, "U2OS-ERα cells [4]": {"tested_on": "U2OS-ERα cells", "test": "NKG2E mRNA real-time PCR in U2OS-ERα cells", "assay_type": "cell-based, human", "conditions": "for NKG2E gene expression, compound alone: 10 nM E2, 5 μM 2′,3′,4′-THC, 1 μM tamoxifen or raloxifene", "protocol": "as §2, §1"}, "[5]": {"conditions": "1 μM ICI, 10 nM estradiol, 5 μM 2′,3′,4′-THC, 24 hours"}}}
{"compound": "C[C@]12CC[C@@H]3c4cc(O)c(O)cc4CC[C@H]3[C@@H]1CC[C@@H]2O", "note": "[2-hydroxyestradiol, reference compound]", "values": [{"measurement": "synergistic action of 2′,3′,4′-THC on NKG2E-TK-Luc with the named estrogen", "setting": "ERα", "result": "synergistic action"}]}
{"compound": "COc1cc2c(cc1O)CC[C@@H]1[C@@H]2CC[C@]2(C)[C@@H](O)CC[C@@H]12", "note": "[2-methoxyestradiol, reference compound]", "values": [{"measurement": "synergistic action of 2′,3′,4′-THC on NKG2E-TK-Luc with the named estrogen", "setting": "ERα", "result": "smaller synergistic activation"}]}
{"compound": "C[C@]12CC[C@@H]3c4ccc(O)c(O)c4CC[C@H]3[C@@H]1CC[C@@H]2O", "note": "[4-hydroxyestradiol, reference compound]", "values": [{"measurement": "synergistic action of 2′,3′,4′-THC on NKG2E-TK-Luc with the named estrogen", "setting": "ERα", "result": "synergistic action"}]}
{"compound": "C[C@]12CC[C@@H]3c4ccc(O)cc4CC[C@H]3[C@@H]1CC[C@@H]2O", "note": "[E2, 17β-estradiol, reference compound]", "values": [{"measurement": "genes uniquely regulated by E2 alone", "setting": "U2OS-ERα cells [1]; 10 nM E2", "result": 222, "unit": "genes"}, {"measurement": "number of genes regulated, compound alone", "setting": "U2OS-ERα cells [1]; 10 nM E2 or 5 μM 2′,3′,4′-THC, 3-fold or more, P≤0.05", "result": 756, "unit": "genes"}, {"measurement": "MCF-7 cell proliferation, compound alone", "setting": "MCF-7 cells", "result": "increased"}, {"measurement": "E2 dose at which FGR activation was observed", "setting": "U2OS-ERα cells [2]; E2 alone, 24 hrs", "result": 10, "unit": "nM"}, {"measurement": "KCNK6 regulation", "setting": "U2OS-ERα cells [2]; E2 alone, 24 hrs", "result": "not regulated"}, {"measurement": "KRT73 regulation", "setting": "U2OS-ERα cells [2]; E2 alone, 24 hrs", "result": "not regulated"}, {"measurement": "H & E staining of uterus, compound alone", "setting": "mouse uterus", "result": "increased the number of cells lining the duct"}, {"measurement": "amount of gonadal adipose tissue fat", "setting": "mouse uterus; E2 alone", "result": "decreased"}, {"measurement": "uterine size / uterine weight, compound alone", "setting": "mouse uterus; osmotic pump", "result": "large increase"}, {"measurement": "KRT19 gene expression, compound alone", "setting": "U2OS-ERα cells [3]", "result": "induced"}, {"measurement": "NKG2E gene expression, compound alone", "setting": "U2OS-ERα cells [4]; 24 hours", "result": "activated"}]}
{"compound": "C[C@]12CC[C@@H]3c4ccc(O)cc4C[C@@H](CCCCCCCCC[S+]([O-])CCCC(F)(F)C(F)(F)F)[C@H]3[C@@H]1CC[C@@H]2O", "note": "(some centres unmarked) [ICI 182,780]", "values": [{"measurement": "effect on induction of KRT73 by the 2′,3′,4′-THC/E2 combination", "setting": "U2OS-ERα cells [2]; [5]", "result": "blocked"}, {"measurement": "effect on induction of NKG2E by the 2′,3′,4′-THC/E2 combination", "setting": "U2OS-ERα cells [4]; [5]", "result": "blocked"}]}
{"compound": "O=C(c1ccc(OCCN2CCCCC2)cc1)c1c(-c2ccc(O)cc2)sc2cc(O)ccc12", "note": "[raloxifene]", "values": [{"measurement": "KRT19 gene expression, compound alone", "setting": "U2OS-ERα cells [3]", "result": "no effect"}, {"measurement": "effect on E2-induced KRT19 expression", "setting": "U2OS-ERα cells [3]", "result": "blocked"}, {"measurement": "NKG2E gene expression, compound alone", "setting": "U2OS-ERα cells [4]; 24 hours", "result": "activated"}, {"measurement": "effect on E2-induced NKG2E gene expression", "setting": "U2OS-ERα cells [4]; in combination with 10 nM E2, 24 hours", "result": "antagonized"}]}
{"compound": "CC/C(=C(\\c1ccccc1)c1ccc(OCCN(C)C)cc1)c1ccccc1", "note": "[tamoxifen]", "values": [{"measurement": "KRT19 gene expression, compound alone", "setting": "U2OS-ERα cells [3]", "result": "no effect"}, {"measurement": "effect on E2-induced KRT19 expression", "setting": "U2OS-ERα cells [3]", "result": "blocked"}, {"measurement": "NKG2E gene expression, compound alone", "setting": "U2OS-ERα cells [4]; 24 hours", "result": "activated"}]}
